The values that follow come from patent US20120302748A1, “TREATMENT OR PROPHYLAXIS OF PROLIFERATIVE CONDITIONS” (THE UNIVERSITY COURT OF THE UNIVERSITY OF DUNDEE, priority 2009, published 2012).

In general, melting point refers to the temperature of the solid-liquid transition. The term inhibition denotes the relative decrease from the control value, in per cent. The low end stands for a response near the control, the high end for a response far below the control.

Data set [1] addresses T1, CYP1B1 (Homo sapiens, UniProt Q16678).
T1 sequence (Q16678 1-543): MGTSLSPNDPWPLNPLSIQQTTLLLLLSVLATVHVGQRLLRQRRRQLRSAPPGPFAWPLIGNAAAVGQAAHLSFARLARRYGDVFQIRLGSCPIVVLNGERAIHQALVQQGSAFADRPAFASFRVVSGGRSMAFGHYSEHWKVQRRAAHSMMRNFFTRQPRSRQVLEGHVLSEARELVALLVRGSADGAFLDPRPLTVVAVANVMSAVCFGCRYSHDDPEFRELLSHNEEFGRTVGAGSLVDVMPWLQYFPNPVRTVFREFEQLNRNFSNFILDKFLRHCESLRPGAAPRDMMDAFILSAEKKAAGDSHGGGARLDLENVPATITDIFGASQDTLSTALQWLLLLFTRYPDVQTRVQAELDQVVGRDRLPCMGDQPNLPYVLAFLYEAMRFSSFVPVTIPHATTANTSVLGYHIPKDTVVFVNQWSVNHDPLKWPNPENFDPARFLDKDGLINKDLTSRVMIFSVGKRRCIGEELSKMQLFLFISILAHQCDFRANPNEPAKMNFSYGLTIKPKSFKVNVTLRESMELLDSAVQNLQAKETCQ
In words: CYP1B1 substrate inhibition, P450-Glo Luciferin-CEE luminescent assay. To be noted: human.

The target in data set [2] is T1, CYP1B1. Description: CYP1B1 substrate prediction model (Gaussian Kernel weighted k-NN). The conditions noted are these: predicted versus actual.
Data set [3] in a line: in vitro. The conditions noted are these: Chinese hamster.
Data set [4] deals with CHO/CYP1B1 cells. In words: cells. The conditions noted are these: Cricetulus griseus.
Data set [5] has as its system UT-SCC-14 tumour cells. In words: Cytotoxicity in primary HNSCC tumour cell line UT-SCC-14 (MTS assay). To be noted: Homo sapiens, 72 h, read-out: cytotoxicity IC50 UT-SCC-14. (In general: Tetrazolium dyes change colour on reduction, which living cells bring about.)
Description: A UT-SCC-14 tumour cell suspension at 2000 cells per well on a 96-well plate and if necessary add fresh media to give a total volume per well of 100 μl. The cells were allowed to attach for 4 h in an incubator. […] The final concentration of ethanol 0.2% was found not to effect the growth characteristics of the UT-SCC-14 cell line. The UT-SCC-14 cells were incubated with test compound for 72 h after which time all aspirated and replaced with 100 μl of fresh medium to compensate for the loss of medium due to evaporation. The cells were incubated with 20 μl of the MTS assay reagent for 1.5 h and the absorbance per well at 510 nm measured using a plate reader. The mean absorbance and standard deviation for each test compound concentration was calculated versus a series of controls including (a) cells plus medium, (b) cell plus medium containing ethanol 0.2%, (c) medium alone, and (d) medium containing ethanol 0.2% and a range of test compound concentrations from 0 to 100 μmol dm^−3.
Data set [6] concerns CYP1A1. In words: in vitro. To be noted: Chinese hamster.
The subject of data set [7] is CHO/CYP1B1 cells.
In data set [8] the test system is UT-SCC-10. In words: cells. The conditions noted are these: Homo sapiens, 72 h, read-out: cytotoxicity IC50 UT-SCC-10.
In data set [9] the test system is UT-SCC-8. Description: cells. The conditions noted are these: Homo sapiens, 72 h, read-out: cytotoxicity IC50 UT-SCC-8.
In data set [10] the test system is UT-SCC-9. In words: cells. The conditions noted are these: Homo sapiens, 72 h, read-out: cytotoxicity IC50 UT-SCC-9.
Data set [11] has as its system UTSCC-14 primary human tumour xenograft. In words: Anti-tumour activity in primary human tumour xenograft model. Format: in vivo, nude mice. The conditions noted are these: for Tumour growth delay at 28 days: 2 cycles daily for 5 days/2 days off. As for the experimental part: Primary UTSCC-14 cell lines 3×10^6 were implanted subcutaneously in the flank of nude mice. Mice were randomized to 10 animals per group when the tumour volume was 100 to 150 mm^3. SU046-04 was given intraperitoneally at 12, 25 and 50 mg/Kg in PBS versus versus vehicle alone for 2 cycles: daily for 5 days/2 days off. Tumour volume was measured every 4 days using calipers. […] Tumour growth delay at 28 days was 31% at 12 mg/Kg, 56% at 25 mg/Kg, and 90% at 50 mg/Kg with 4/10 complete responses.

The subject of data set [12] is CHO cells.
Data set [13] has as its target T2, human supersomal CYP1B1 plus reductase (Homo sapiens, UniProt Q16678).
T2 sequence (Q16678 1-543): T1 sequence (Q16678 1-543)
In words: CYP1B1 substrate inhibition, P450-Glo Luciferin-CEE luminescent assay. The conditions noted are these: final concentration of 0.5 mmol dm^−3; triplicate, mean ± standard deviation.

For data set [14], the target named is T3, CYP1A1 (Homo sapiens, UniProt P04798).
T3 sequence (P04798 1-512): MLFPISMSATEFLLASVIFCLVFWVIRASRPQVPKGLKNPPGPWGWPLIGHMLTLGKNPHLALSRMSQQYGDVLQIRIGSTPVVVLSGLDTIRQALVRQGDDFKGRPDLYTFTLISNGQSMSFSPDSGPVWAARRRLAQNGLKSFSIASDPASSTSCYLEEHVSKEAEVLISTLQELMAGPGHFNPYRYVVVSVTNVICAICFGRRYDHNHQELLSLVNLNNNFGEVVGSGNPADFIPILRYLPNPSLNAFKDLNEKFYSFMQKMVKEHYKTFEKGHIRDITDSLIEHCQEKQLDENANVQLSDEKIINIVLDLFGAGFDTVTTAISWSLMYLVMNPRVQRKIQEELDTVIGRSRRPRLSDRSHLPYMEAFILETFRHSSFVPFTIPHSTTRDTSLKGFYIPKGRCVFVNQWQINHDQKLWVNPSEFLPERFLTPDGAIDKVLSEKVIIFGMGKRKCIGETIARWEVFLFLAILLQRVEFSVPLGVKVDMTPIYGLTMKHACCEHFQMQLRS
The conditions noted are these: inhibitor at 10 nmol dm^−3.

The target of data set [15] is T3, CYP1A1. To be noted: inhibitor at 10 nmol dm^−3. This is another data set of the same source.
Where [16] appears, read: cytotoxicity IC50 in wild-type CHO cells.
The mark [17] stands for this setting: 72 h, read-out: Cytotoxicity (IC50) CHO/CYP1B1 72 h.
Setting [18] is: 96 h, read-out: Cytotoxicity (IC50) CHO/CYP1B1 96 h.

Read-outs that look alike come from different tables or passages of the source.

Molecule `Cc1cc(=O)oc2cc(OCc3c4ccccc4cc4ccccc34)ccc12` [SU06-02, 7-(anthracen-9-ylmethoxy)-4-methyl-2H-chromen-2-one] gave a melting point of 216 to 218 °C.

Take `COc1cc(OC)c2oc(COP(=O)(NCCCl)NCCCl)cc2c1` [SU025-04]: in [1], the inhibition at 0.5 mmol dm^−3 was 91.22 ± 0.48%. In [2], the “% CYP1B1 substrate inhibition accuracy” value is reported as 96%. Also, the IC50 was 15200 ± 200 nM in data set [3] (Cytotoxicity (IC50) CHO 72 h); 10100 ± 300 nM in data set [3] (Cytotoxicity (IC50) CHO 96 h); no less than 10000 nM in data set [3] (setting [16]); 9 ± 5 nM in data set [4] (setting [17]); 3 ± 2 nM in data set [4] (setting [18]); 50 ± 10 nM in data set [5]. The IC50 in data set [6] worked out at 25500 ± 1000 nM. Further, the “IC50 ratio 72 h (CHO / CHO/CYP1B1)” value in [7] turned out to be 1689.

Take `CC[C@@]1(O)C(=O)OCc2c1cc1n(c2=O)Cc2cc3cc(OCc4cc5cc(OC)cc(OC)c5o4)ccc3nc2-1` [SU037-04]: the IC50 is 210 ± 40 nM in data set [8], 560 ± 40 nM in data set [9], 220 ± 80 nM in data set [10] and 120 ± 70 nM in data set [5].

`COc1cc(OC)c2oc(COP(=O)(NCCBr)NCCBr)cc2c1` [SU046-04] showed an inhibition at 0.5 mmol dm^−3 in data set [1] of 96.45 ± 0.22%. Besides, the results for the “Tumour growth delay at 28 days” value in data set [11] (12 mg/Kg intraperitoneally), in data set [11] (25 mg/Kg intraperitoneally) and in data set [11] (50 mg/Kg intraperitoneally) were 31%, 56% and 90%, respectively. Besides, the complete responses in data set [11] (50 mg/Kg intraperitoneally) is on record as 4/10. Further, in data set [11] (after highest exposure 250 mg/Kg), the “adverse effects / body weight loss” value was “No observed adverse effects or significant body weight loss”. Moreover, in data set [11] (all three treatment arms 12, 25 and 50 mg/Kg), the “inhibition of tumour growth versus vehicle” value is given as “significant inhibition of tumour growth”. Further, the “% CYP1B1 substrate inhibition accuracy” value in [2] was 96%. In addition, the IC50 was 20300 ± 1200 nM in [3] (Cytotoxicity (IC50) CHO 72 h); 16200 ± 200 nM in data set [3] (Cytotoxicity (IC50) CHO 96 h); no less than 10000 nM in data set [3] (setting [16]); 4 ± 2 nM in data set [4] (setting [17]); 3 ± 1 nM in [4] (setting [18]); 20 ± 10 nM in data set [5]. This molecule yielded an IC50 in data set [6] of 20300 ± 2100 nM. Also, the “IC50 ratio 72 h (CHO / CHO/CYP1B1)” value in data set [7] is 5075.

On to `O=P1(N(CCCl)CCCl)NCCCO1` (stereo not shown) [cyclophosphamide], for which the “toxicity in the CHO cytotoxicity assay” value in data set [12] is recorded as “non-toxic”.

`C[C@]12CC[C@@H]3c4ccc(O)cc4CC[C@H]3[C@@H]1CC[C@@H]2O` [β-estradiol, reference compound]: in data set [13], the “% CYP1B1 substrate inhibition actual” value is listed as 72.34 ± 0.45%. Further, in data set [2], the “% CYP1B1 substrate inhibition accuracy” value is recorded as 95%.

In the case of tetramethoxystilbene, in [14], the “Specific activity CHO/CYP1A1 ethoxyresorufin” value is 26 ± 4 pmol resorufin or luciferin min^−1 mg protein^−1. The “Specific activity CHO/CYP1A1 Luciferin-CEE” value in data set [15] is given as 20 ± 5 pmol resorufin or luciferin min^−1 mg protein^−1. Moreover, in [2], the “% CYP1B1 substrate inhibition accuracy” value is 98%.
